Laboratory results taken from paper PMC10058583, “Development of Novel Fluorinated Polyphenols as Selective Inhibitors of DYRK1A/B Kinase for Treatment of Neuroinflammatory Diseases including Parkinson’s Disease” (Pharmaceuticals, 2023).

Experiments:
[1] = test system: MPTP-treated C57BL/6J mice; experiment: MPTP model for Parkinson's disease; format: in vivo, mouse
Method: We tested the behavioral effect of 1c in the MPTP model for PD using both IN and PO delivery (both 25 mg/kg, BID). This is a common neurodegenerative disorder model characterized by a progressive loss of dopaminergic (DA) neurons in the […]. Several studies have shown that oxidative stress, neuroinflammation, and microglial activation play a pivotal role, at least in the progression of PD [35].
MPTP dissolved in saline was administered via intraperitoneal injections once daily at a dosage of 30 mg/kg/day for 5 consecutive days. The control group was administered intraperitoneal injections of saline.
The behavioral tests were performed at initiation as the baseline and 3, 6, and 9 days following the last MPTP injection. Pole test: the test consisted of a gauze-taped pole (45 cm high, 1 cm in diameter) with a small cork ball at the top. Mice were placed with their head facing upwards immediately below the ball. Two times were recorded: the time it took for the mouse to turn completely downward (T-turn) and the time it took to descend to the floor (T-total), with a cutoff limit of 60 sec. The test consisted of two trials separated by 10 min intertrial intervals, and the average time was calculated. Mice were pretrained for 3 days before MPTP injection. The rotarod test was used to assess the motor coordination and balance of animals. On the test day, the mice were habituated for 30 min in the test room before testing. The drum was slowly accelerated to a speed of 4–40 rpm for a maximum of 300 s. The latency to fall off the rotarod within this time period was recorded. The test consisted of three trials separated by 10 min intertrial intervals. The mean latency to fall off the rotarod was recorded and used for analysis. Mice were trained for 3 days before MPTP injection.
Tissue Collection and IHC Analysis: within 2 h following the last dose, the blood of animals was collected via cardiac puncture under isoflurane-induced anesthesia. After blood collection, animals were transcardially perfused with normal saline, followed by buffered formalin fixative. Brains were removed, post-fixed, and embedded in paraffin for subsequent IHC analysis of […] (TH)-positive cells in the substantia nigra (SN).

[2] = target: T1, human DYRK1B isoform p65 (GST fusion) (Homo sapiens, UniProt Q9Y463); experiment: ELISA-based non-radioactive kinase assay, DYRK1B; format: biochemical; details: 30 ng GST-DYRK1B, 60 min reaction
T1 construct: made in house
T1 sequence (Q9Y463 1-589 isoform Q9Y463-2): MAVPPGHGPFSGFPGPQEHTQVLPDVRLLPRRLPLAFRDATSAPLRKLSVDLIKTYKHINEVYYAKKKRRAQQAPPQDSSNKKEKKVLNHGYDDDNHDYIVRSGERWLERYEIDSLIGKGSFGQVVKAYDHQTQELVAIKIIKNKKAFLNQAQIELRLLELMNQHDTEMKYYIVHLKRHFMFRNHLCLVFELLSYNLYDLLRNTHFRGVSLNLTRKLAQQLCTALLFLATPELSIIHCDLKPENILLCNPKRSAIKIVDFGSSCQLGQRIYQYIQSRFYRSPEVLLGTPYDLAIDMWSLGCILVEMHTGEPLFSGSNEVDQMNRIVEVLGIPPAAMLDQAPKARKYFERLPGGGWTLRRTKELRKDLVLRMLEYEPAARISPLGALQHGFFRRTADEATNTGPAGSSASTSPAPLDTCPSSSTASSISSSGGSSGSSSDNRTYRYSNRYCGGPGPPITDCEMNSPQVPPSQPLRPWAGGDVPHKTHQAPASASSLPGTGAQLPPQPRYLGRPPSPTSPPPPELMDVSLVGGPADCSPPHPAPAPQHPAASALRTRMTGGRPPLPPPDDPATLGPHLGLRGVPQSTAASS
Method: (§1) DYRK1B was prepared from human DYRK1B isoform p65 as glutathione S-transferase fusion protein, and DYRK2 was prepared from human DYRK2 isoform 1 as 6xHis-tagged protein, as previously described.
(§2) For DYRK2, the reactions were performed exactly as described for DYRK1A. For DYRK1B, the assays were similarly conducted but with 30 ng GST-DYRK1B and a kinase reaction time of 60 min.

[3] = target: T2, human DYRK2 isoform 1 (6xHis-tagged) (Homo sapiens, UniProt Q92630); experiment: ELISA-based non-radioactive kinase assay, DYRK2; format: biochemical
T2 sequence (Q92630 74-601 limits assumed): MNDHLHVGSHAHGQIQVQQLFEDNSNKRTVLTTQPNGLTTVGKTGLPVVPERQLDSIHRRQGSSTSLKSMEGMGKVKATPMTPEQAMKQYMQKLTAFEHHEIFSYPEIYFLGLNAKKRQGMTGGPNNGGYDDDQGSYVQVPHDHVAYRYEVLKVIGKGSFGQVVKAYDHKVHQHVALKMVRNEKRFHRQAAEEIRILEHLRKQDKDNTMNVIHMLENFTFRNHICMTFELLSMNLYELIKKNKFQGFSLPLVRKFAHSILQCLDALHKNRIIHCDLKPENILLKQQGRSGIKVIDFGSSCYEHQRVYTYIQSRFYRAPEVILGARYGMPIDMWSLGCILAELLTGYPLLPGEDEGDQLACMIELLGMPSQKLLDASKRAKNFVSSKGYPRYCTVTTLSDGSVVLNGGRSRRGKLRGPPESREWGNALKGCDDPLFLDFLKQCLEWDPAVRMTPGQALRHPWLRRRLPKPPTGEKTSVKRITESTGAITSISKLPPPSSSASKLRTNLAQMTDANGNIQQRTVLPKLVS
Method: as §1, §2

DYRK1A = DYRK1A (Rattus norvegicus, UniProt Q63470); experiment: ATP competition assay on DYRK1A; format: biochemical; details: ATP up to 0.8 mM
[4] = In vitro and in vivo safety studies (not detailed)
[5] = target: T3, 6xHis-tagged rat-truncated DYRK1A (residues 1-497) (Rattus norvegicus, UniProt Q63470); experiment: ELISA-based non-radioactive kinase assay, DYRK1A; format: biochemical; details: read-out: DYRK1A IC50
T3 construct: 6xHis-tagged rat-truncated DYRK1A (residues 1-497); 6xHis; made in house

[6] = IN or PO 25 mg/kg BID, no difference between the two routes

SMILES: COc1cc(C(=O)O[C@@H]2Cc3c(O)cc(O)cc3O[C@H]2c2cc(O)c(O)c(O)c2)c(F)c(O)c1O [Compound 1c]
- tyrosine-hydroxylase-positive cells in the substantia nigra pars compacta ([1]; IN 25 mg/kg BID): failed to show any histological difference
- movement behavior, pole test [1, 6]: completely restored
- movement behavior, rotarod test [1, 6]: completely restored
- tyrosine-hydroxylase-positive cells in the substantia nigra pars compacta ([1]; PO 25 mg/kg BID): protected from MPTP toxicity
- IC50 [2]: 79 nM
- IC50 [3]: 331 nM
- mode of inhibition with varying ATP (DYRK1A): non-ATP-competitive inhibitor
- in vitro and in vivo safety studies, outcome [4]: have not reveled any concerns
- IC50 [5]: 73 nM
